In patent US11718622B2, “Heterocyclic adenosine receptor antagonists” (Exelixis, Inc., priority 2020, dated 2023):

Key:
[1] = biological target: Adenosine A2a (ADORA2A) receptor (Homo sapiens (Human), UniProt P29274); assay: ADORA2A Receptor Binding Assay; conditions: radioligand binding, membrane stock
Protocol: ADORA1A and ADORA2A Receptor Binding Assay
2 μL of each compound (test compounds, high control compound, low control compound) was transferred into individual wells of an assay plate. Also to each individual well, 98 μL of Adenosine A1a membrane stock (for ADORA1A Receptor Binding Assay) or Adenosine A2a membrane stock (for ADORA2A Receptor Binding Assay) was dispensed, followed by 100 μL of radio-labeled ligand. Plates were then sealed, and incubated at room temperature for 1 hour (for ADORA1A Receptor Binding Assay) or 2 hours (for ADORA2A Receptor Binding Assay). Unifilter-96 GF/C filter plates were pre-soaked with 50 μL of 0.3% PEI per well for at least 30 min at room temperature. When binding assays were completed, reaction mixtures were filtered through GF/C plates using a Perkin Elmer Filtermate Harvester, and then each plate was washed 4× with cold wash buffer. Filter plates were then dried for 1 hour at 50° C. After drying, the bottom of the filter plate wells was sealed using Perkin Elmer Unifilter-96 backing seal tape. 50 μL of Perkin Elmer Microscint 20 cocktail was then added, and the top of the filter plate was then sealed using Perkin Elmer TopSeal-A sealing film. ^3H trapped on the filter was counted using a Perkin Elmer MicroBeta2 Reader. Data analysis was performed using GraphPad Prism 5 software, and the “Inhibition [% Control]” was calculated using the following equation: % Inh=(1−Background subtracted Assay value/Background subtracted HC value)*100.

[2] = biological target: Adenosine A2B (ADORA2B) receptor (Homo sapiens (Human), UniProt P29275); assay: ADORA2B Receptor Binding Assay; conditions: radioligand binding, membrane stock
Protocol: ADORA2B Receptor Binding Assay
100 μL of Adenosine A2B membrane stock was dispensed into individual wells of an assay plate. 1 μL of each compound (test compounds, high control compound, low control compound) was then transferred into individual wells, followed by 100 μL of radio-labeled ligand. Plates were then sealed, and incubated at room temperature for 1 hour. Unifilter-96 GF/C filter plates were pre-soaked with 50 μL of 0.5% BSA per well for at least 30 min at room temperature. When binding assays were completed, reaction mixtures were filtered through GF/C plates using a Perkin Elmer Filtermate Harvester, and then each plate was washed 4× with cold wash buffer. Filter plates were then dried for 1 hour at 50° C. After drying, the bottom of the filter plate wells was sealed using Perkin Elmer Unifilter-96 backing seal tape. 50 μL of Perkin Elmer Microscint 20 cocktail was then added, and the top of the filter plate was then sealed using Perkin Elmer TopSeal-A sealing film. ^3H trapped on the filter was counted using a Perkin Elmer MicroBeta2 Reader. Data analysis was performed using GraphPad Prism 5 software, and the “Inhibition[% Control]” was calculated using the following equation: % Inh=(1−Background subtracted Assay value/Background subtracted HC value)*100.

Chain of Adenosine A2a (ADORA2A) receptor (P29274 whole entry): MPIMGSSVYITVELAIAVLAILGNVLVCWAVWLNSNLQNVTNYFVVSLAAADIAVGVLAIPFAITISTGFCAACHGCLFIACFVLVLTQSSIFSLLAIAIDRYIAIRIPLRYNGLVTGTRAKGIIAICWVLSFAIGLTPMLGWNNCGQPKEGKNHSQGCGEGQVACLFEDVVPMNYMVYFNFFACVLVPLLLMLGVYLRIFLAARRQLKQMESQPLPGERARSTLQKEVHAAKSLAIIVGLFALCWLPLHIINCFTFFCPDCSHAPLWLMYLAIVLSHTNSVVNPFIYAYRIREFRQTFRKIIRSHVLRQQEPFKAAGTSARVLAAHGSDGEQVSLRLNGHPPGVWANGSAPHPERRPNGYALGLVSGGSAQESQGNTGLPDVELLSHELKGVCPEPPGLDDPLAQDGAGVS
Chain of Adenosine A2B (ADORA2B) receptor (P29275 whole entry): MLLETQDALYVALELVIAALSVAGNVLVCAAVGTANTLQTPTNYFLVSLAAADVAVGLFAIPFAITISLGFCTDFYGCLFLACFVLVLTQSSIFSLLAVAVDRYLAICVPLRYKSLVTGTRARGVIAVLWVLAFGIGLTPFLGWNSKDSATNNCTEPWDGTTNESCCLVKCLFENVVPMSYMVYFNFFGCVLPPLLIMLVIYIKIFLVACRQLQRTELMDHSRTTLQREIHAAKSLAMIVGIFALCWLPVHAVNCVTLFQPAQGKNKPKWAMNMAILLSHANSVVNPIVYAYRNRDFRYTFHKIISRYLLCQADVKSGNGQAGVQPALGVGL

Row | SMILES | IC50 [1] [nM] | IC50 [2] [nM]
1 | Cc1nc2cc(NC(=O)C3CC3)nc(-c3ccco3)n2n1 [Compound 29, N-[5-(furan-2-yl)-2-methyl-[1,2,4]triazolo[1,5-c]pyrimidin-7-yl]cyclopropanecarboxamide] | < 10 | < 10
2 | Cc1nc2c(F)c(N)nc(-c3ccc(C)o3)n2n1 [Compound 30, 8-fluoro-2-methyl-5-(5-methylfuran-2-yl)-[1,2,4]triazolo[1,5-c]pyrimidin-7-amine] | < 10 | 10 to 100
3 | Cc1nc2c(C(N)=O)c(N)nc(-c3ccc(C)o3)n2n1 [Compound 32, 7-amino-2-methyl-5-(5-methylfuran-2-yl)-[1,2,4]triazolo[1,5-c]pyrimidine-8-carboxamide] | 100 to 1000 | 100 to 1000
4 | Cc1nc2c(Cl)c(N)nc(-c3ccccc3)n2n1 [Compound 33, 8-chloro-2-methyl-5-phenyl-[1,2,4]triazolo[1,5-c]pyrimidin-7-amine] | < 10 | 10 to 100
5 | CC(=O)Nc1cc2nc(C(C)C)nn2c(-c2ccc(C)o2)n1 [Compound 34, N-[5-(5-methylfuran-2-yl)-2-propan-2-yl-[1,2,4]triazolo[1,5-c]pyrimidin-7-yl]acetamide] | < 10 | < 10
6 | Cc1nc2c3cc[nH]c3nc(-c3ccc(C)o3)n2n1 [Compound 35, 4-methyl-7-(5-methylfuran-2-yl)-3,5,6,8,10-pentazatricyclo[7.3.0.0^2,6]dodeca-1(9),2,4,7,11-pentaene] | < 10 | < 10
7 | Cc1ccc(-c2nc3c(c4nc(C(C)C)nn24)C(C)(C)CN3)o1 [Compound 36, 12,12-dimethyl-7-(5-methylfuran-2-yl)-4-propan-2-yl-3,5,6,8,10-pentazatricyclo[7.3.0.0^2,6]dodeca-1(9),2,4,7-tetraene] | 10 to 100 | 100 to 1000
8 | CC(=O)Nc1cc2nc(C)nn2c(-c2ccco2)n1 [Compound 37, N-[5-(furan-2-yl)-2-methyl-[1,2,4]triazolo[1,5-c]pyrimidin-7-yl]acetamide] | < 10 | 10 to 100
9 | Cc1nc2cc(NC(=O)C3CC3)nc(-c3ccc(C4CC4)o3)n2n1 [Compound 38, N-[5-(5-cyclopropylfuran-2-yl)-2-methyl-[1,2,4]triazolo[1,5-c]pyrimidin-7-yl]cyclopropanecarboxamide] | < 10 | 10 to 100
10 | Cc1nc2c(F)c(NC(=O)C3CC3)nc(-c3ccc(C)o3)n2n1 [Compound 39, N-[8-fluoro-2-methyl-5-(5-methylfuran-2-yl)-[1,2,4]triazolo[1,5-c]pyrimidin-7-yl]cyclopropanecarboxamide] | < 10 | 10 to 100
11 | Cc1nc2c(Cl)c(N)nc(-c3ccc(C)s3)n2n1 [Compound 40, 8-chloro-2-methyl-5-(5-methylthiophen-2-yl)-[1,2,4]triazolo[1,5-c]pyrimidin-7-amine] | < 10 | < 10
12 | CC(=O)Nc1cc2nc(C(F)(F)F)nn2c(-c2ccc(C)o2)n1 [Compound 41, N-[5-(5-methylfuran-2-yl)-2-(trifluoromethyl)-[1,2,4]triazolo[1,5-c]pyrimidin-7-yl]acetamide] | < 10 | < 10
13 | Cc1ccc(-c2nc(N)c(Cl)c3nc(C(F)(F)F)nn23)o1 [Compound 42, 8-chloro-5-(5-methylfuran-2-yl)-2-(trifluoromethyl)-[1,2,4]triazolo[1,5-c]pyrimidin-7-amine] | < 10 | < 10
14 | Cc1nc2cc(NC(=O)C3CC3)nc(-c3ccc(C(C)(C)C)o3)n2n1 [Compound 43, N-[5-(5-tert-butylfuran-2-yl)-2-methyl-[1,2,4]triazolo[1,5-c]pyrimidin-7-yl]cyclopropanecarboxamide] | 10 to 100 | > 1000
15 | CC(=O)Nc1cc2nc(C)nn2c(-c2cnc(C)o2)n1 [Compound 44, N-[2-methyl-5-(2-methyl-1,3-oxazol-5-yl)-[1,2,4]triazolo[1,5-c]pyrimidin-7-yl]acetamide] | 10 to 100 | 10 to 100
16 | Cc1nc2c3cc(C)[nH]c3nc(-c3ccc(C)o3)n2n1 [Compound 45, 4,11-dimethyl-7-(5-methylfuran-2-yl)-3,5,6,8,10-pentazatricyclo[7.3.0.0^2,6]dodeca-1(9),2,4,7,11-pentaene] | < 10 | < 10

Row | SMILES | IC50 [1] [nM] | IC50 [2] [nM]
17 | CC(=O)Nc1cc2nc(C(C)C)nn2c(-c2cnc(C)o2)n1 [Compound 47, N-[5-(2-methyl-1,3-oxazol-5-yl)-2-propan-2-yl-[1,2,4]triazolo[1,5-c]pyrimidin-7-yl]acetamide] | < 10 | 10 to 100
18 | CC(=O)Nc1cc2nc(C(C)C)nn2c(-c2ccco2)n1 [Compound 48, N-[5-(furan-2-yl)-2-propan-2-yl-[1,2,4]triazolo[1,5-c]pyrimidin-7-yl]acetamide] | < 10 | < 10
19 | CC(=O)Nc1cc2nc(C(C)C)nn2c(-c2cnco2)n1 [Compound 49, N-[5-(1,3-oxazol-5-yl)-2-propan-2-yl-[1,2,4]triazolo[1,5-c]pyrimidin-7-yl]acetamide] | 10 to 100 | 100 to 1000
20 | Cc1ccc(-c2nc(NC(=O)C3CC3)cc3nc(C4CCOC4)nn23)o1 (centres unmarked) [Compound 50, N-[5-(5-methylfuran-2-yl)-2-(oxolan-3-yl)-[1,2,4]triazolo[1,5-c]pyrimidin-7-yl]cyclopropanecarboxamide] | < 10 | 10 to 100
21 | CC(=O)Nc1cc2nc(C)nn2c(-c2cnco2)n1 [Compound 51, N-(2-methyl-5-(oxazol-5-yl)-[1,2,4]triazolo[1,5-c]pyrimidin-7-yl)acetamide] | 100 to 1000 | > 1000
22 | Cc1nc2cc(NC(=O)C3CC3)nc(-c3ccc(Br)o3)n2n1 [Compound 52, N-[5-(5-bromofuran-2-yl)-2-methyl-[1,2,4]triazolo[1,5-c]pyrimidin-7-yl]cyclopropanecarboxamide] | < 10 | < 10
23 | Cc1nc2cc(NC(=O)C3CC3)nc(-c3cccc(C#N)c3)n2n1 [Compound 53, N-[5-(3-cyanophenyl)-2-methyl-[1,2,4]triazolo[1,5-c]pyrimidin-7-yl]cyclopropanecarboxamide] | 10 to 100 | 100 to 1000
24 | Cc1ccc(-c2nc(NC(=O)C3CC3)cc3nc(C4CCOCC4)nn23)o1 [Compound 54, N-[5-(5-methylfuran-2-yl)-2-(oxan-4-yl)-[1,2,4]triazolo[1,5-c]pyrimidin-7-yl]cyclopropanecarboxamide] | < 10 | 100 to 1000
25 | Cc1nc2cc(NC(=O)C3CC3)nc(-c3ccc(C(C)C)o3)n2n1 [Compound 55, N-[2-methyl-5-(5-propan-2-ylfuran-2-yl)-[1,2,4]triazolo[1,5-c]pyrimidin-7-yl]cyclopropanecarboxamide] | < 10 | 100 to 1000
26 | Cc1nc2cc(NC(=O)C3CC3)nc(-c3ccc(C#N)cc3)n2n1 [Compound 56, N-[5-(4-cyanophenyl)-2-methyl-[1,2,4]triazolo[1,5-c]pyrimidin-7-yl]cyclopropanecarboxamide] | 100 to 1000 | > 1000
27 | Cc1cncc(-c2nc(N)c(Cl)c3nc(C)nn23)c1 [Compound 57, 8-chloro-2-methyl-5-(5-methylpyridin-3-yl)-[1,2,4]triazolo[1,5-c]pyrimidin-7-amine] | > 1000 | > 1000
28 | CC(C)c1nc2cc(NC(=O)C3CC3)nc(-c3ccco3)n2n1 [Compound 58, N-[5-(furan-2-yl)-2-propan-2-yl-[1,2,4]triazolo[1,5-c]pyrimidin-7-yl]cyclopropanecarboxamide] | < 10 | < 10
29 | CC(=O)Nc1cc2nc(C(F)(F)F)nn2c(-c2ccco2)n1 [Compound 59, N-[5-(furan-2-yl)-2-(trifluoromethyl)-[1,2,4]triazolo[1,5-c]pyrimidin-7-yl]acetamide] | < 10 | 10 to 100
30 | Cc1nc2cc(NC(=O)C3COC3)nc(-c3ccc(C)o3)n2n1 [Compound 60, N-[2-methyl-5-(5-methylfuran-2-yl)-[1,2,4]triazolo[1,5-c]pyrimidin-7-yl]oxetane-3-carboxamide] | < 10 | 10 to 100
31 | CC(=O)Nc1cc2nc(C3CC3)nn2c(-c2ccc(C)o2)n1 [Compound 61, N-[2-cyclopropyl-5-(5-methylfuran-2-yl)-[1,2,4]triazolo[1,5-c]pyrimidin-7-yl]acetamide] | < 10 | 10 to 100
